# From patent US7829063B2, “Development of molecular imaging probes for carbonic anhydrase-IX using click chemistry” (Siemens Medical Solutions USA, Inc., priority 2007, dated 2010)
# Biological target: T1, CA-IX (Homo sapiens, UniProt Q16790)
# T1 construct: His tag (C); purchased R&D Systems Inc. 2188-CA; host or cells: mouse myeloma cell line NS0
# Assay: CA-IX combinatorial library screening, competitive fluorescence-based assay with dansylamide (DNSA)
# Format: binding
# Details: 1 h; Table 1, Libraries 1-3; sample concentrations 100 nM and 1000 nM, DNSA 200 μM; screening at 1 μM; read-out: In Vitro Binding Assay (Library Screening)
# Procedure, shortened: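 Recombinant His-tagged CA-IX (NS0-expressed) in phosphate buffer pH 7.4 with test compound at 100 nM or 1000 nM; competitive displacement started with 200 μM dansylamide (stock concentration). After 1 h at 25 °C, fluorescence read at 460 nm (excitation 290 nm).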
row,inhibition at 1 µM [%],Compound
1,< 40,CC(C)C[C@@H](C(=O)NCc1ccccc1)n1cc(COc2ccc3nc(S(N)(=O)=O)sc3c2)nn1 [DIIK118]

# Same assay, conditions: 1 h; Table 2, Libraries 4-7; sample concentrations 100 nM and 1000 nM, DNSA 200 μM; screening at 1 μM; read-out: In Vitro Binding Assay (Library (Screening))
row,inhibition at 1 µM [%],Compound
1,< 40,NS(=O)(=O)c1nc2ccc(OCc3cn([C@@H](Cc4ccccc4)C(=O)NCCN4CCN(Cc5ccccc5)CC4)nn3)cc2s1 [DHK-2-74]

# Biological target: T1, CA-IX
# Assay: Binding affinity (Kd) determination for CA-IX inhibitors, DNSA fluorescence competition assay, Scatchard plots
# Details: Table 3
# Experimental: General. […] The human red blood cells were obtained from Research Blood Components, LLC. All absorbance measurements were performed on a SPECTRA MAX M2 plate reader at 25° C. The LC/MS analyses were performed on an Agilent 1100 series LC/MSD (SL) using a 30×2.1 mm Zorbax C8 column with a Phenomenex C18 pre-column. Compound detection was accomplished by electrospray mass spectroscopy in positive selected ion mode (LC/MS-SIM). The elution solvents were acetonitrile and water, contained 0.05% TFA. Nuclear magnetic resonance (NMR) spectra were obtained on a Bruker AMX 300 MHz spectrometer or a Varian 400. 19F NMR spectra were recorded on a Bruker AMX 282.35 MHz or a Varian 400 spectrometer. The mass spectra were recorded on an Agilent 1100 series LC/MSD with electrospray mass spectroscopic detection. Flash column chromatography was performed on Merck silica gel (40-63 μm) using the solvent system indicated. The radiochemical and chemical purities were analyzed by RP-HPLC.
# General Procedure of Binding Affinity (Ka) Determination for CA-IX Inhibitors
# The assay was based on the observation that the only fluorescence signal detected at 460 nm upon excitation at 290 nm, an absorption […] for DNSA, was that of the DNSA.CA complex. […] The latter were developed for each test compound using mass balance for calculating the concentration of CA bound to DNSA [DNSA.CA], bound to the non-fluorescent sample [CA.Inh] and free CA [CA] in solution. The Kd values were determined from Scatchard plots using the equation below as described by Whitesides et al. [CA.Inh]/[CA]tot.[Inh]=K11^inh−K11^inh{[CA.Inh]+[CA.DNSA]}/([CA]tot)
# The terms [CA.DNSA], [CA.Inh], and free CA were calculated using the mass balance based on the known values for the dissociation constant of CA.DNSA and the total concentration of CA in each reaction.
row,Kd [nM],Compound
1,11,"CC(C)C(C(=O)N[C@@H](Cc1ccc(OC(CO)CF)cc1)C(=O)O)n1cc(COc2ccc3nc(S(N)(=O)=O)sc3c2)nn1 (single isomer, unassigned) [GGC121A]"
2,13,"CC(C)C(C(=O)N[C@@H](Cc1ccc(OC(CO)CF)cc1)C(=O)O)n1cc(COc2ccc3nc(S(N)(=O)=O)sc3c2)nn1 (single isomer, unassigned) [GGC121B]"
3,10,"NS(=O)(=O)c1nc2cc(OCc3cn(C(CCO)C(=O)NC(CSCc4cccc(OCCF)c4)C(=O)O)nn3)ccc2s1 (single isomer, unassigned) [VM2-107a]"
4,5,"NS(=O)(=O)c1nc2cc(OCc3cn(C(CCO)C(=O)NC(CSCc4cccc(OCCF)c4)C(=O)O)nn3)ccc2s1 (single isomer, unassigned) [VM2-107b]"
5,5,"CC(C)C(C(=O)NC(COCc1cccc(OCCO)c1)C(=O)O)n1cc(COc2ccc3nc(S(N)(=O)=O)sc3c2)nn1 (single isomer, unassigned) [VM3-165A]"
6,11,"CC(C)C(C(=O)NC(COCc1cccc(OCCO)c1)C(=O)O)n1cc(COc2ccc3nc(S(N)(=O)=O)sc3c2)nn1 (single isomer, unassigned) [VM3-165B]"
7,5,"NS(=O)(=O)c1nc2ccc(OCc3cn(C(Cc4ccc(F)cc4)C(=O)NC(COCc4cccc(OCCO)c4)C(=O)O)nn3)cc2s1 (single isomer, unassigned) [VM3-167A]"
8,10,"NS(=O)(=O)c1nc2ccc(OCc3cn(C(Cc4ccc(F)cc4)C(=O)NC(COCc4cccc(OCCO)c4)C(=O)O)nn3)cc2s1 (single isomer, unassigned) [VM3-167B]"
9,5,"CC(C)C(C(=O)NC(Cc1ccc(OCC(O)CF)cc1)C(=O)O)n1cc(COc2ccc3nc(S(N)(=O)=O)sc3c2)nn1 (single isomer, unassigned) [VM4047a]"
10,11,"CC(C)[C@H](C(=O)N[C@H](Cc1ccc(OCC(O)CF)cc1)C(=O)O)n1cc(COc2ccc3nc(S(N)(=O)=O)sc3c2)nn1 (single isomer, unassigned) [VM4047b]"
11,17,"NS(=O)(=O)c1nc2ccc(OCc3cn([C@@H](Cc4ccc(OCCF)cc4)C(=O)O)nn3)cc2s1 [BD2-09, (S)-3-(4-(2-fluoroethoxy)phenyl)-2-(4-((2-sulfamoylbenzo[d]thiazol-6-yloxy)methyl)-1H-1,2,3-triazol-1-yl)propanoic acid]"
12,20,"NS(=O)(=O)c1nc2ccc(OCc3cn([C@@H](CCCCNC(=O)CCC(=O)O)C(=O)NCc4ccc(C(F)(F)F)cc4)nn3)cc2s1 [BD2-47, (S)-4-oxo-4-(6-oxo-5-(4-((2-sulfamoylbenzo[d]thiazol-6-yloxy)methyl)-1H-1,2,3-triazol-1-yl)-6-(4-(trifluoromethyl)benzylamino)hexylamino)butanoic acid]"
13,14,"NS(=O)(=O)c1nc2ccc(OCc3cn(CC(=O)N(CC(=O)O)Cc4ccc(C(F)(F)F)cc4)nn3)cc2s1 [BD3-36, 2-(2-(4-((2-sulfamoylbenzo[d]thiazol-6-yloxy)methyl)-1H-1,2,3-triazol-1-yl)-N-(4-(trifluoromethyl)benzyl)acetamido)acetic acid]"
14,10,"NS(=O)(=O)c1nc2ccc(OCc3cn(CC(=O)N[C@H](CSCc4cccc(OCCn5cc(CCCF)nn5)c4)C(=O)O)nn3)cc2s1 [BW2-27, (S)-3-(3-(2-(4-(3-fluoropropyl)-1H-1,2,3-triazol-1-yl)ethoxy)benzylthio)-2-(2-(4-((2-sulfamoylbenzo[d]thiazol-6-yloxy)methyl)-1H-1,2,3-triazol-1-yl)acetamido)propanoic acid]"
15,5,"COC(=O)[C@@H](CSCc1cccc(OCCOCCOCCF)c1)NC(=O)Cn1cc(COc2ccc3nc(S(N)(=O)=O)sc3c2)nn1 [BW2-41, (S)-methyl 3-(3-(2-(2-(2-fluoroethoxy)ethoxy)ethoxy)benzylthio)-2-(2-(4-((2-sulfamoylbenzo[d]thiazol-6-yloxy)methyl)-1H-1,2,3-triazol-1-yl)acetamido)propanoate]"
16,5,"NS(=O)(=O)c1nc2ccc(OCc3cn(CC(=O)N[C@H](CSCc4cccc(OCCOCCOCCF)c4)C(=O)O)nn3)cc2s1 [BW2-45, (S)-3-(3-(2-(2-(2-fluoroethoxy)ethoxy)ethoxy)benzylthio)-2-(2-(4-((2-sulfamoylbenzo[d]thiazol-6-yloxy)methyl)-1H-1,2,3-triazol-1-yl)acetamido) propanoic acid]"

row,Kd [nM],Compound
1,1.7,"COC(=O)[C@H](Cc1ccc(C(F)(F)F)cc1)NC(=O)[C@H](C(C)C)n1cc(COc2ccc3nc(S(N)(=O)=O)sc3c2)nn1 [BW-96, (S)-methyl 2-((S)-3-methyl-2-(4-((2-sulfamoylbenzo[d]thiazol-6-yloxy)methyl)-1H-1,2,3-triazol-1-yl)butanamido)-3-(4-(trifluoromethyl)phenyl) propanoate]"
2,1.7,CC1(C)O[C@@H](CF)[C@H](COc2ccc(CC(C(=O)NC(Cc3ccc(C(F)(F)F)cc3)C(=O)O)n3cc(COc4ccc5nc(S(N)(=O)=O)sc5c4)nn3)cc2)O1 (stereo partly drawn) [BW-139-1A]
3,2.5,CC1(C)O[C@@H](CF)[C@H](COc2ccc(CC(C(=O)NC(Cc3ccc(C(F)(F)F)cc3)C(=O)O)n3cc(COc4ccc5nc(S(N)(=O)=O)sc5c4)nn3)cc2)O1 (stereo partly drawn) [BW-369-1B]
4,1,CC(C)[C@@H](C(=O)NCc1ccc(C(F)(F)F)cc1)n1cc(COc2ccc3nc(S(N)(=O)=O)sc3c2)nn1 [DHK2-24]
5,5,CCOC(=O)C1CCN(C(=O)[C@H](C(C)C)n2cc(COc3ccc4nc(S(N)(=O)=O)sc4c3)nn2)CC1 [DHK2-41]
6,5,CC(C)[C@@H](C(=O)NCC1COc2ccccc2O1)n1cc(COc2ccc3nc(S(N)(=O)=O)sc3c2)nn1 (stereo partly drawn) [DHK2-44]
7,2.5,"NS(=O)(=O)c1nc2ccc(OCc3cn([C@@H](Cc4ccccc4)C(=O)NCc4ccc(C(F)(F)F)cc4)nn3)cc2s1 [DHK2-51, (S)-3-phenyl-2-(4-((2-sulfamoylbenzo[d]thiazol-6-yloxy)methyl)-1H-1,2,3-triazol-1-yl)-N-(4-(trifluoromethyl)benzyl)propanamide]"
8,2,Cc1onc(-c2ccccc2)c1CNC(=O)[C@H](Cc1ccccc1)n1cc(COc2ccc3nc(S(N)(=O)=O)sc3c2)nn1 [DHK2-66]
9,3.4,CCOC(=O)C1CCN(C(=O)[C@H](Cc2ccccc2)n2cc(COc3ccc4nc(S(N)(=O)=O)sc4c3)nn2)CC1 [DHK2-68]
10,2.5,NS(=O)(=O)c1nc2ccc(OCc3cn([C@@H](Cc4ccccc4)C(=O)NCC4COc5ccccc5O4)nn3)cc2s1 (stereo partly drawn) [DHK2-71]
11,10,CC(C)[C@@H](C(=O)N1CCC(C(=O)O)CC1)n1cc(COc2ccc3nc(S(N)(=O)=O)sc3c2)nn1 [DHK2-84]
12,10,NS(=O)(=O)c1nc2ccc(OCc3cn([C@@H](Cc4ccccc4)C(=O)N4CCC(C(=O)O)CC4)nn3)cc2s1 [DHK2-94]
13,25,CC(C)[C@@H](C(=O)NCc1ccc(CN(C)C)o1)n1cc(-c2ccc(S(N)(=O)=O)cc2)nn1 [DHK2-95]
14,5,CCOC(=O)C1CCN(C(=O)[C@H](Cc2ccc(OCCF)cc2)n2cc(COc3ccc4nc(S(N)(=O)=O)sc4c3)nn2)CC1 [DHK2-118]
15,3.4,NS(=O)(=O)c1nc2ccc(OCc3cn([C@@H](Cc4ccc(OCCF)cc4)C(=O)NCc4ccc(C(F)(F)F)cc4)nn3)cc2s1 [DHK2-119]
